According to patent US9815796B2 (Merck Sharp & Dohme Corp., priority 2013, dated 2017):

Biological target: human PDE2A1 (Homo sapiens (Human), UniProt O00408)
Assay: IMAP FP PDE selectivity panel, human PDE2A1
Type: biochemical
Details: Human PDE2, Lab B; read-out: Human PDE2 Ki (nM) - Lab B
Protocol: Selectivity for PDE2, as compared to other PDE families, was assessed using the IMAP® technology. Human PDE 10A2 enzyme was prepared from cytosolic fractions of transiently transfected HEK cells. All other PDE's were GST Tag human enzyme expressed in insect cells and were obtained from BPS Bioscience (San Diego, Calif.): PDE1A (Cat#60010), human PDE2A1 (Cat#60020), PDE3A (Cat#60030), PDE4A1A (Cat#60040), PDE5A1 (Cat#60050), PDE6C (Cat#60060), PDE7A (Cat#60070), PDE8A1 (Cat#60080), PDE9A2 (Cat#60090), PDE11A4 (Cat#60110).
Assays for PDE 1 through 11 were performed in parallel at room temperature in 384-well microtiter plates with an incubation volume of 20.2 μL. Solutions of test compounds were prepared in DMSO and serially diluted with DMSO to yield 30 μL of each of ten solutions differing by 3-fold in concentration, at 32 serial dilutions per plate. […] A Labcyte POD 810 (Labcyte, Sunnyvale, Calif.) was used to dispense 200 nL from each well of the titration plate to make eleven copies of the assay plate for each titration, one copy for each PDE enzyme. A solution of each enzyme (dilution from aliquots, sufficient to produce 20% substrate conversion) and a separate solution of FAM-labeled cAMP or FAM-labeled cGMP from Molecular Devices (Sunnyvale, Calif., product # R7506 or cGMP#R7508), at a final concentration of 50 nM were made in the assay buffer (10 mM Tris HCl, pH 7.2, 10 mM MgCl2, 0.05% NaN3 0.01% Tween-20, and 1 mM DTT). Note that the substrate for PDE2 is 50 nM FAM cAMP containing 1000 nM of cGMP. The enzyme and the substrate were then added to the assay plates in two consecutive additions of 10 μL and then shaken to mix. The reaction was allowed to proceed at room temperature for 60 minutes. A binding solution was then made from the kit components, comprised of 80% Solution A, 20% Solution B and binding reagent at a volume of 1/600 the total binding solution. The enzymatic reaction was stopped by addition of 60 μL of the binding solution to each well of the assay plate. The plates were sealed and shaken for 10 seconds. The plates were incubated at room temperature for one hour, then the parallel and perpendicular fluorescence was measured using a Tecan Genios Pro plate reader (Tecan, Switzerland). The apparent inhibition constants for the compounds against all 11 PDE's was determined from the parallel and perpendicular fluorescent readings as described for PDE10 FP assay using the following apparent KM values for each enzyme and substrate combination: PDE1A (FAM cGMP) 70 nM, human PDE2A1 (FAM cAMP) 10,000 nM, PDE3A (FAM cAMP) 50 nM, PDE4A1A (FAM cAMP) 1500 nM, PDE5A1 (FAM cGMP) 400 nM, PDE6C (FAM cGMP) 700 nM, PDE7A (FAM cAMP) 150 nM, PDE8A1 (FAM cAMP) 50 nM, PDE9A2 (FAM cGMP) 60 nM, PDE10A2 (FAM cAMP) 150 nM, PDE11A4 (FAM cAMP) 1000 nM. The intrinsic PDE2 inhibitory activity of a compound which may be used in accordance with the present invention may be determined by these assays.

human PDE2A1, sequence (O00408 other isoform, or with tags, fused parts or gaps): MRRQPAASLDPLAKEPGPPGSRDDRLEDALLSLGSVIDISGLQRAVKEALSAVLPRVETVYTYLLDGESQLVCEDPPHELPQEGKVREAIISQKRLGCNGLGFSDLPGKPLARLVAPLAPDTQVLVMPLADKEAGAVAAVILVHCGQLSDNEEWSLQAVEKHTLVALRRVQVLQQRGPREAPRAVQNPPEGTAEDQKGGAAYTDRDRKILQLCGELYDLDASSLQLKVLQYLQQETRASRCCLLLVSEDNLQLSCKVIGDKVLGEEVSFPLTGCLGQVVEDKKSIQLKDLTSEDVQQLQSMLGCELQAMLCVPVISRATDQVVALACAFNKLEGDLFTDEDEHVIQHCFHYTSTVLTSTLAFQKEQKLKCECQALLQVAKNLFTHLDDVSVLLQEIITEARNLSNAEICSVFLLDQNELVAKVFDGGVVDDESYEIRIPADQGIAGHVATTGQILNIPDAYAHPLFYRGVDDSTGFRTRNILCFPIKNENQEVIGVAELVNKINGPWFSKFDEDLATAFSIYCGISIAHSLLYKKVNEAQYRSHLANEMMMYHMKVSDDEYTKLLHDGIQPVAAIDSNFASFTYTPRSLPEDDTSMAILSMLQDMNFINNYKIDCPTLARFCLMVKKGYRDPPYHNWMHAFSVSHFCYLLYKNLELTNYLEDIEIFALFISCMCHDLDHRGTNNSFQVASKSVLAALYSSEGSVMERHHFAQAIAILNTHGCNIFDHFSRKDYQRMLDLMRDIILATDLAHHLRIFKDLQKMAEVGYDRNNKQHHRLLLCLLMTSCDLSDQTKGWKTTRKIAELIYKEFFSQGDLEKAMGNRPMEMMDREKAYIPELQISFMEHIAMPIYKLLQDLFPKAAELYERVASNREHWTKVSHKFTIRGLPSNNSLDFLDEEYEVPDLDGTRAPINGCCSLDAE

Ki [nM] | SMILES
108 | Cc1nc(C(=O)NC(C)c2ccc(C3(C(F)(F)F)CC3)cc2)cc(=O)[nH]1 (single isomer, unassigned) [Example 687, (R)- or (S)-2-methyl-6-oxo-N-(1-(4-(1-(trifluoromethyl)cyclopropyl)phenyl)-ethyl)-1,6-dihydropyrimidine-4-carboxamide]
> 2960 | CC(NC(=O)c1cc(=O)[nH]c(C2CC2)n1)c1ccc(C2(C(F)(F)F)CC2)cc1 (single isomer, unassigned) [Example 688, (S)- or (R)-2-cyclopropyl-6-oxo-N-(1-(4-(1-(trifluoromethyl)cyclopropyl)phenyl)-ethyl)-1,6-dihydropyrimidine-4-carboxamide]
67 | CC(NC(=O)c1cc(=O)[nH]c(C2CC2)n1)c1ccc(C2(C(F)(F)F)CC2)cc1 (single isomer, unassigned) [Example 689, (R)- or (S)-2-cyclopropyl-6-oxo-N-(1-(4-(1-(trifluoromethyl)cyclopropyl)phenyl)-ethyl)-1,6-dihydropyrimidine-4-carboxamide]
> 2960 | CC(NC(=O)c1cc(=O)[nH]c(-c2ccccc2)n1)c1ccc(C2(C(F)(F)F)CC2)cc1 (single isomer, unassigned) [Example 690, (S)- or (R)-6-oxo-2-phenyl-N-(1-(4-(1-(trifluoromethyl)cyclopropyl)phenyl)-ethyl)-1,6-dihydropyrimidine-4-carboxamide]
39 | CC(NC(=O)c1cc(=O)[nH]c(-c2ccccc2)n1)c1ccc(C2(C(F)(F)F)CC2)cc1 (single isomer, unassigned) [Example 691, (R)- or (S)-6-oxo-2-phenyl-N-(1-(4-(1-(trifluoromethyl)cyclopropyl)phenyl)-ethyl)-1,6-dihydropyrimidine-4-carboxamide]
> 2960 | CC(NC(=O)c1cc(=O)[nH]c(-c2ncccn2)n1)c1ccc(C2(C(F)(F)F)CC2)cc1 (single isomer, unassigned) [Example 692, (S)- or (R)-6-oxo-2-(pyrimidin-2-yl)-N-(1-(4-(1-(trifluoromethyl)cyclopropyl)phenyl)-ethyl)-1,6-dihydropyrimidine-4-carboxamide]
63 | CC(NC(=O)c1cc(=O)[nH]c(-c2ncccn2)n1)c1ccc(C2(C(F)(F)F)CC2)cc1 (single isomer, unassigned) [Example 693, (R)- or (S)-6-oxo-2-(pyrimidin-2-yl)-N-(1-(4-(1-(trifluoromethyl)cyclopropyl)phenyl)-ethyl)-1,6-dihydropyrimidine-4-carboxamide]
> 2960 | CC(NC(=O)c1cc(=O)[nH]c(C2CC2)n1)c1ccc(C(C)(C)C(F)(F)F)cc1 (single isomer, unassigned) [Example 696]
115 | CC(NC(=O)c1cc(=O)[nH]c(C2CC2)n1)c1ccc(C(C)(C)C(F)(F)F)cc1 (single isomer, unassigned) [Example 697]
> 2960 | CC(NC(=O)c1cc(=O)[nH]c(-c2ccccc2)n1)c1ccc(C(C)(C)C(F)(F)F)cc1 (single isomer, unassigned) [Example 698, (S)- or (R)-6-oxo-2-phenyl-N-(1-(4-(1,1,1-trifluoro-2-methylpropan-2-yl)phenyl)ethyl)-1,6-dihydropyrimidine-4-carboxamide]
103 | CC(NC(=O)c1cc(=O)[nH]c(-c2ccccc2)n1)c1ccc(C(C)(C)C(F)(F)F)cc1 (single isomer, unassigned) [Example 699, (R)- or (S)-6-oxo-2-phenyl-N-(1-(4-(1,1,1-trifluoro-2-methylpropan-2-yl)phenyl)ethyl)-1,6-dihydropyrimidine-4-carboxamide]
> 2960 | CC(NC(=O)c1cc(=O)[nH]c(-c2ncccn2)n1)c1ccc(C(C)(C)C(F)(F)F)cc1 (single isomer, unassigned) [Example 700, (S)- or (R)-6-oxo-N-(1-(4-(1,1,1-trifluoro-2-methylpropan-2-yl)phenyl)ethyl)-1,6-dihydro-[2,2′-bipyrimidine]-4-carboxamide]
127 | CC(NC(=O)c1cc(=O)[nH]c(-c2ncccn2)n1)c1ccc(C(C)(C)C(F)(F)F)cc1 (single isomer, unassigned) [Example 701, (R)- or (S)-6-oxo-N-(1-(4-(1,1,1-trifluoro-2-methylpropan-2-yl)phenyl)ethyl)-1,6-dihydro-[2,2′-bipyrimidine]-4-carboxamide]
237 | CC1(c2ccc(C(NC(=O)c3cc(=O)[nH]c(C4CC4)n3)C(C)(C)C)cc2F)CC1 (single isomer, unassigned) [Example 712, (S)- or (R)-2-cyclopropyl-N-(1-(3-fluoro-4-(1-methylcyclopropyl)phenyl)-2,2-dimethylpropyl)-6-oxo-1,6-dihydropyrimidine-4-carboxamide]
1.5 | CC1(c2ccc(C(NC(=O)c3cc(=O)[nH]c(C4CC4)n3)C(C)(C)C)cc2F)CC1 (single isomer, unassigned) [Example 713, (R)- or (S)-2-cyclopropyl-N-(1-(3-fluoro-4-(1-methylcyclopropyl)phenyl)-2,2-dimethylpropyl)-6-oxo-1,6-dihydropyrimidine-4-carboxamide]
~1820 | CC1(c2ccc(C(NC(=O)c3cc(=O)[nH]c(-c4ccccc4)n3)C(C)(C)C)cc2F)CC1 (single isomer, unassigned) [Example 714, (S)- or (R)-N-(1-(3-fluoro-4-(1-methylcyclopropyl)phenyl)-2,2-dimethylpropyl)-6-oxo-2-phenyl-1,6-dihydropyrimidine-4-carboxamide]
3.8 | CC1(c2ccc(C(NC(=O)c3cc(=O)[nH]c(-c4ccccc4)n3)C(C)(C)C)cc2F)CC1 (single isomer, unassigned) [Example 715, (R)- or (S)-N-(1-(3-fluoro-4-(1-methylcyclopropyl)phenyl)-2,2-dimethylpropyl)-6-oxo-2-phenyl-1,6-dihydropyrimidine-4-carboxamide]
> 2960 | CC1(c2ccc(C(NC(=O)c3cc(=O)[nH]c(-c4ncccn4)n3)C(C)(C)C)cc2F)CC1 (single isomer, unassigned) [Example 716, (S)- or (R)-N-(1-(3-fluoro-4-(1-methylcyclopropyl)phenyl)-2,2-dimethylpropyl)-6-oxo-1,6-dihydro-[2,2′-bipyrimidine]-4-carboxamide]
39 | CCC(C)(NC(=O)c1cc(=O)[nH]c(C)n1)c1ccc(C(F)(F)F)cc1F (single isomer, unassigned) [Example 718, (S)- or (R)-N-(2-(2-fluoro-4-(trifluoromethyl)phenyl)butan-2-yl)-2-methyl-6-oxo-1,6-dihydropyrimidine-4-carboxamide]
7.7 | CCC(C)(NC(=O)c1cc(=O)[nH]c(C)n1)c1ccc(C(F)(F)F)cc1F (single isomer, unassigned) [Example 719, (R)- or (S)-N-(2-(2-fluoro-4-(trifluoromethyl)phenyl)butan-2-yl)-2-methyl-6-oxo-1,6-dihydropyrimidine-4-carboxamide]
2.6 | Cc1nc(C(=O)NC(c2ccc(S(F)(F)(F)(F)F)cc2F)C(C)(C)C)cc(=O)[nH]1 (single isomer, unassigned) [Example 720, (R)- or (S)-N-(1-(2-fluoro-4-(pentafluoro-λ^6-sulfanyl)phenyl)-2,2-dimethylpropyl)-2-methyl-6-oxo-1,6-dihydropyrimidine-4-carboxamide]
~1220 | Cc1nc(C(=O)NC(c2ccc(S(F)(F)(F)(F)F)cc2F)C(C)(C)C)cc(=O)[nH]1 (single isomer, unassigned) [Example 721, (S)- or (R)-N-(1-(2-fluoro-4-(pentafluoro-λ^6-sulfanyl)phenyl)-2,2-dimethylpropyl)-2-methyl-6-oxo-1,6-dihydropyrimidine-4-carboxamide]
